Data as given in US20230079819A1, “COMPOUNDS AND USES THEREOF” (Foghorn Therapeutics Inc., priority 2019, published 2023).
Like-named read-outs stand apart in the source and are kept apart here.

Columns and labels:
BRG-1 = biological target: T1, BRG-1 (Homo sapiens, UniProt P51532); test: ATPase catalytic activity of BRG-1, ADP-Glo in vitro biochemical assay; settings: ATPase catalytic activity, 30 nM BRG-1, 400 μM ATP
T1 construct: made in house; host or cells: High Five insect cells

BRM = biological target: T2, BRM (Homo sapiens, UniProt P51531); test: ATPase catalytic activity of BRM, ADP-Glo in vitro biochemical assay; settings: ATPase catalytic activity, 30 nM BRM, 400 μM ATP
T2 construct: made in house; host or cells: High Five insect cells
T2 sequence (P51531 whole entry): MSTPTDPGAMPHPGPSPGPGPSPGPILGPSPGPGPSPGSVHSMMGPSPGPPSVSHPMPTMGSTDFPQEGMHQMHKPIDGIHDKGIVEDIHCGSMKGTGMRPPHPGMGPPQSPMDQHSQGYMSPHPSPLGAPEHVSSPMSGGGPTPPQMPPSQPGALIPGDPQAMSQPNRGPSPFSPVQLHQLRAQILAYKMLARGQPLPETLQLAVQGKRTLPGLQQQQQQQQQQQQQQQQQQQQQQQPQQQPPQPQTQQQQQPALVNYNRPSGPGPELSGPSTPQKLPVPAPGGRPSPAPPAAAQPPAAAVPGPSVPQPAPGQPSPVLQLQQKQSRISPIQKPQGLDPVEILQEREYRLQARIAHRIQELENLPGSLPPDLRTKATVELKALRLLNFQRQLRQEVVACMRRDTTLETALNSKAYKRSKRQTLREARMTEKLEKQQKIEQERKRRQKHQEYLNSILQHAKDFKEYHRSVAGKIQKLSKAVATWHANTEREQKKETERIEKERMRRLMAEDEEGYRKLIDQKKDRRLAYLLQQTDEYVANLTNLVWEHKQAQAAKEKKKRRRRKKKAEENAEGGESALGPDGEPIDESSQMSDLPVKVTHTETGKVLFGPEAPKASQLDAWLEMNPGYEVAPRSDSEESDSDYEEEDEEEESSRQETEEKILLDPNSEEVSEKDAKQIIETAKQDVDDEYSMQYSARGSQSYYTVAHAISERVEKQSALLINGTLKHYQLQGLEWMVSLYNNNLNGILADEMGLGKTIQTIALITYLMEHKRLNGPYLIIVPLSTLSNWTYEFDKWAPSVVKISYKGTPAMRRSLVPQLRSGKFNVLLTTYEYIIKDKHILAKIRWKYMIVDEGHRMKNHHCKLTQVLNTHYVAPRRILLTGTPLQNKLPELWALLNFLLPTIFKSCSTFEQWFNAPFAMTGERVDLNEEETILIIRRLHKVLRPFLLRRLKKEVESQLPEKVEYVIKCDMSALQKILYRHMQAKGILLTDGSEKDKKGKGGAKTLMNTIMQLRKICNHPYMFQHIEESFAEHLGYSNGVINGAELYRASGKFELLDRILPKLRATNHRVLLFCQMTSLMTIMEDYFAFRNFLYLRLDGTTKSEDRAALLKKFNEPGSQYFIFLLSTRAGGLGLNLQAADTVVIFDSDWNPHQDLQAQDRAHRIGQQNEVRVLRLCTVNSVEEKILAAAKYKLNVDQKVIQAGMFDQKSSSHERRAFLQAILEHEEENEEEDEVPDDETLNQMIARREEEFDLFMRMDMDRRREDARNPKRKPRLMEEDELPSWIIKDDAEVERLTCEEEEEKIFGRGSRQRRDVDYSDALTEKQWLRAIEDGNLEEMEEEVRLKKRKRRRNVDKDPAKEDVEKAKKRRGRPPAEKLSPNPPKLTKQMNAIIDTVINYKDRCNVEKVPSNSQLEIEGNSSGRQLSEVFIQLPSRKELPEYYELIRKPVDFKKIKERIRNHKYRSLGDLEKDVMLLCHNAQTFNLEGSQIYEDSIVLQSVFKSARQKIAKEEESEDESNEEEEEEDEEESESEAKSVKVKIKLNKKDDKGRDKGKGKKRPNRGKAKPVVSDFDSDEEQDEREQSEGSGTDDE

T1 sequence (P51532 whole entry): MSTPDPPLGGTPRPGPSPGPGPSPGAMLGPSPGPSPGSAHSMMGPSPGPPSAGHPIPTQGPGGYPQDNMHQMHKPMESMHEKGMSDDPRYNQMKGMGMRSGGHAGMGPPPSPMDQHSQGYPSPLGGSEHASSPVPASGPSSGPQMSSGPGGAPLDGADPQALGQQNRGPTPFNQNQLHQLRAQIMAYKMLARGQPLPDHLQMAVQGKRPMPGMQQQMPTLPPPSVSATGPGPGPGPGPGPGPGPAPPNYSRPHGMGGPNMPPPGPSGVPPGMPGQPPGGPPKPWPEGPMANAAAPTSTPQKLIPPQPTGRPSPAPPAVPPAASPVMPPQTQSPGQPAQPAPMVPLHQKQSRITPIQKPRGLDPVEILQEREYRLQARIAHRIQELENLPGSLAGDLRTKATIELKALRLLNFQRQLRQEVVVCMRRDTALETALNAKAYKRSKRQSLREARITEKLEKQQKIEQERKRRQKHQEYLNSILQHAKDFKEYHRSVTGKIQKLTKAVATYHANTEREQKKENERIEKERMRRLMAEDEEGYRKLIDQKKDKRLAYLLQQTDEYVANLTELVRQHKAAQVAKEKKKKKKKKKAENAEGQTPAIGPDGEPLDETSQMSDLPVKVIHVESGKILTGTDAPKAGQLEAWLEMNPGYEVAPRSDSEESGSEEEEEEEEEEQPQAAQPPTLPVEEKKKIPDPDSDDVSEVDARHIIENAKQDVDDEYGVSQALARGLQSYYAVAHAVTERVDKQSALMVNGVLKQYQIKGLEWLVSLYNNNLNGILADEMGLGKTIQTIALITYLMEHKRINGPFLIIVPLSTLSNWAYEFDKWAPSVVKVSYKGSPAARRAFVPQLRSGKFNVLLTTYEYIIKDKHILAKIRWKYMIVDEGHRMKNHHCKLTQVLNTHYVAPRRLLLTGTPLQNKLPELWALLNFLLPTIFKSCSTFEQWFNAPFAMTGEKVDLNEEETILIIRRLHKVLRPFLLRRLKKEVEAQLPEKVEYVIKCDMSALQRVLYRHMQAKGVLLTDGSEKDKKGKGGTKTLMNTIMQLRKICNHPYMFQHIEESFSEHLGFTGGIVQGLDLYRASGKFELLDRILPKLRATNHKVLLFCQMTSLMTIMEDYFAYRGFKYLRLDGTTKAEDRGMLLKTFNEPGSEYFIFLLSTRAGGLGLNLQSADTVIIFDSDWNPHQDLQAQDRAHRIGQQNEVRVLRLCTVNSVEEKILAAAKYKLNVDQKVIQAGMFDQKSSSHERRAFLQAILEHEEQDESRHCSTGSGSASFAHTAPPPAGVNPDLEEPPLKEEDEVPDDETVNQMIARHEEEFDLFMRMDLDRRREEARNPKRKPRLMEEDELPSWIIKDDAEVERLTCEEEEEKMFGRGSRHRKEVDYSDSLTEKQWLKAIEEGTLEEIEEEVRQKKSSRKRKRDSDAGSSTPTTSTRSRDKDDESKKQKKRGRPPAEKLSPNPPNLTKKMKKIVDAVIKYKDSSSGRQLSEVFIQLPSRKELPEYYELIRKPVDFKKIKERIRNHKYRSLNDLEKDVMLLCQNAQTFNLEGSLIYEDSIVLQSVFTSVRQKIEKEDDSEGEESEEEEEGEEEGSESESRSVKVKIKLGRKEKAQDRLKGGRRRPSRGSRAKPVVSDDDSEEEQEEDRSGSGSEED

## CO[C@@H]1CN(c2cccc(-c3csc(NC(=O)CNC(=O)c4ccn(S(C)(=O)=O)c4)n3)c2)CC[C@@H]1O (racemic) [Compound 158]
BRG-1; read-out: BRG1 IP50 (μM)*
  IC50: > 0.01 µM
BRM; read-out: BRM IP50 (μM)*
  IC50: > 0.01 µM

## C[C@H]1C[C@H](C)CN(c2cccc(-c3csc(NC(=O)CNC(=O)c4ccn(S(C)(=O)=O)c4)n3)c2)C1 (racemic) [Compound 187]
BRG-1; read-out: BRG1 IP50 (μM)*
  IC50: > 0.01 µM
BRM; read-out: BRM IP50 (μM)*
  IC50: > 0.01 µM

## CO[C@@H]1CN(c2cccc(-c3csc(NC(=O)CNC(=O)c4ccn(S(C)(=O)=O)c4)n3)c2)C[C@H]1OC (racemic) [Compound 198]
BRG-1; read-out: BRG1 IP50 (μM)*
  IC50: > 0.01 µM
BRM; read-out: BRM IP50 (μM)*
  IC50: > 0.01 µM

## CO[C@H]1CN(c2cccc(-c3csc(NC(=O)CNC(=O)c4ccn(C(C)(C)C)c4)n3)n2)CC[C@@H]1O (racemic) [Compound 310]
BRG-1; read-out: BRG1 IP50 (μM)*
  IC50: > 0.1 µM
BRM; read-out: BRM IP50 (μM)*
  IC50: > 0.01 µM

## C[C@@H]1CC(c2cccc(-c3csc(NC(=O)CNC(=O)c4ccn(S(C)(=O)=O)c4)n3)n2)=C[C@H](C)O1 (racemic) [Compound 350, N-(2-((4-(6-((cis)-2,6-dimethyl-3,6-dihydro-2H-pyran-4-yl)pyridin-2-yl)thiazol-2-yl)amino)-2-oxoethyl)-1-(methylsulfonyl)-1H-pyrrole-3-carboxamide]
BRG-1; read-out: BRG1 IP50 (μM)*
  IC50: < 0.01 µM
BRM; read-out: BRM IP50 (μM)*
  IC50: < 0.01 µM

## C[C@@H]1CC(c2cccc(-c3csc(NC(=O)CNC(=O)c4ccn(S(C)(=O)=O)c4)n3)c2)=C[C@H](C)O1 (racemic) [Compound 391]
BRG-1; read-out: BRG1 IP50
  IC50: < 0.01 µM
BRM; read-out: BRM IP50
  IC50: < 0.01 µM

## CS(=O)(=O)n1ccc(C(=O)NCC(=O)Nc2nc(-c3cccc([C@@H]4CCCCO4)c3)cs2)c1 (racemic) [Compound 392]
BRG-1; read-out: BRG1 IP50
  IC50: > 0.01 µM
BRM; read-out: BRM IP50
  IC50: > 0.01 µM

## CS(=O)(=O)n1ccc(C(=O)NCC(=O)Nc2nc(-c3cccc(N4C[C@H]5C[C@@H]4C[C@H]5O)c3)cs2)c1 (racemic) [Compound 468]
BRG-1; read-out: BRG1 IP50
  IC50: > 0.1 µM
BRM; read-out: BRM IP50
  IC50: > 0.1 µM

## CS(=O)(=O)n1ccc(C(=O)NCC(=O)Nc2nc(-c3cccc(N4C[C@H]5C[C@@H]4C[C@@H]5O)c3)cs2)c1 (racemic) [Compound 500]
BRG-1; read-out: BRG1 IP50
  IC50: > 0.1 µM
BRM; read-out: BRM IP50
  IC50: > 0.01 µM

## C[C@@H]1CO[C@@H]2CN(c3cccc(-c4csc(NC(=O)CNC(=O)c5ccn(C(C)(C)C)c5)n4)n3)C[C@H]12 (racemic) [Compound 649]
BRG-1; read-out: BRG1 IP50
  IC50: > 0.01 µM
BRM; read-out: BRM IP50
  IC50: > 0.01 µM

## CC(C)(C)n1ccc(C(=O)NCC(=O)Nc2nc(-c3cccc(N4CC[C@@H]5CCO[C@H]5C4)n3)cs2)c1 (racemic) [Compound 650]
BRG-1; read-out: BRG1 IP50
  IC50: > 0.1 µM
BRM; read-out: BRM IP50
  IC50: > 0.01 µM

## C[C@@H]1CCN(c2cccc(-c3csc(NC(=O)CNC(=O)c4ccn(C(C)(C)C)c4)n3)n2)C[C@H]1F (racemic) [Compound 702, 1-tert-butyl-N-[2-[[4-[6-[(3S,4R)-3-fluoro-4-methyl-1-piperidyl]-2-pyridyl]thiazol-2-yl]amino]-2-oxo-ethyl]pyrrole-3-carboxamide]
BRG-1; read-out: BRG1 IP50
  IC50: > 0.1 µM
BRM; read-out: BRM IP50
  IC50: > 0.01 µM

## CC(C)(C)n1ccc(C(=O)NCC(=O)Nc2nc(-c3cccc(N4C[C@H]5CC(F)(F)[C@H]5C4)n3)cs2)c1 (racemic) [Compound 703]
BRG-1; read-out: BRG1 IP50
  IC50: > 0.1 µM
BRM; read-out: BRM IP50
  IC50: > 0.1 µM

## C[C@@H]1CN(c2cccc(-c3csc(NC(=O)CNC(=O)c4ccn(C(C)(C)C)c4)n3)n2)C[C@@H]1F (racemic) [Compound 724]
BRG-1; read-out: BRG1 IP50
  IC50: > 0.01 µM
BRM; read-out: BRM IP50
  IC50: > 0.01 µM

## C[C@@H]1CN(c2cccc(-c3csc(NC(=O)CNC(=O)c4ccn([C@]5(C)CCOC5)c4)n3)n2)C[C@H](C)O1 (single isomer, unassigned) [Compound 490]
BRG-1; read-out: BRG1 IP50
  IC50: > 0.1 µM
BRM; read-out: BRM IP50
  IC50: > 0.01 µM

## C[C@@H]1CN(c2cccc(-c3csc(NC(=O)CNC(=O)c4ccn([C@@]5(C)CCOC5)c4)n3)n2)C[C@H](C)O1 (single isomer, unassigned) [Compound 491]
BRG-1; read-out: BRG1 IP50
  IC50: > 0.01 µM
BRM; read-out: BRM IP50
  IC50: > 0.01 µM

## CN(C)Cc1cc(-c2cccc(-c3csc(NC(=O)CNC(=O)c4ccn(S(C)(=O)=O)c4)n3)c2)ccn1 [Compound 1, N-(2-((4-(3-(2-((dimethylamino)methyl)pyridin-4-yl)phenyl)thiazol-2-yl)amino)-2-oxoethyl)-1-(methylsulfonyl)-1H-pyrrole-3-carboxamide]
BRG-1; read-out: BRG1 IP50 (μM)*
  IC50: < 0.01 µM
BRM; read-out: BRM IP50 (μM)*
  IC50: < 0.01 µM

## CC(C)n1ccc(C(=O)NCC(=O)Nc2nc(-c3cccc(-c4ccn(C)n4)c3)cs2)c1 [Compound 2, 1-isopropyl-N-(2-((4-(3-(1-methyl-1H-pyrazol-3-yl)phenyl)thiazol-2-yl)amino)-2-oxoethyl)-1H-pyrrole-3-carboxamide]
BRG-1; read-out: BRG1 IP50 (μM)*
  IC50: > 0.01 µM
BRM; read-out: BRM IP50 (μM)*
  IC50: > 0.01 µM

## CC(C)(C)n1cnc(C(=O)NCC(=O)Nc2nc(-c3cccc(C#N)c3)cs2)c1 [Compound 3, 1-(tert-butyl)-N-(2-((4-(3-cyanophenyl)thiazol-2-yl)amino)-2-oxoethyl)-1H-imidazole-4-carboxamide]
BRG-1; read-out: BRG1 IP50 (μM)*
  IC50: > 1 µM
BRM; read-out: BRM IP50 (μM)*
  IC50: > 1 µM

## CS(=O)(=O)n1ccc(C(=O)NCC(=O)Nc2nc(-c3cnn(-c4ccncc4)c3)cs2)c1 [Compound 6, 1-(methylsulfonyl)-N-(2-oxo-2-((4-(1-(pyridin-4-yl)-1H-pyrazol-4-yl)thiazol-2-yl)amino)ethyl)-1H-pyrrole-3-carboxamide]
BRG-1; read-out: BRG1 IP50 (μM)*
  IC50: > 0.1 µM
BRM; read-out: BRM IP50 (μM)*
  IC50: > 0.1 µM

## CN1CCc2ccc(-c3csc(NC(=O)CNC(=O)c4ccn(C(C)(C)C)c4)n3)cc2C1=O [Compound 7, 1-(tert-butyl)-N-(2-((4-(2-methyl-1-oxo-1,2,3,4-tetrahydroisoquinolin-7-yl)thiazol-2-yl)amino)-2-oxoethyl)-1H-pyrrole-3-carboxamide]
BRG-1; read-out: BRG1 IP50 (μM)*
  IC50: > 0.01 µM
BRM; read-out: BRM IP50 (μM)*
  IC50: > 0.01 µM

## CC(C)(O)Cn1ccc(-c2cccc(-c3csc(NC(=O)CNC(=O)c4ccn(C(C)(C)C)c4)n3)c2)n1 [Compound 8, 1-(tert-butyl)-N-(2-((4-(3-(1-(2-hydroxy-2-methylpropyl)-1H-pyrazol-3-yl)phenyl)thiazol-2-yl)amino)-2-oxoethyl)-1H-pyrrole-3-carboxamide]
BRG-1; read-out: BRG1 IP50 (μM)*
  IC50: > 0.01 µM
BRM; read-out: BRM IP50 (μM)*
  IC50: > 0.01 µM

## CS(=O)(=O)n1ccc(C(=O)NCC(=O)Nc2nc(-c3cccc(-c4ccnc(N)c4)c3)cs2)c1 [Compound 9, N-(2-((4-(3-(2-aminopyridin-4-yl)phenyl)thiazol-2-yl)amino)-2-oxoethyl)-1-(methylsulfonyl)-1H-pyrrole-3-carboxamide]
BRG-1; read-out: BRG1 IP50 (μM)*
  IC50: < 0.01 µM
BRM; read-out: BRM IP50 (μM)*
  IC50: < 0.01 µM

## C[C@@H]1CN(c2cccc(-c3csc(NC(=O)CNC(=O)c4ccn(S(C)(=O)=O)c4)n3)c2)C[C@H](C)O1 [Compound 10]
BRG-1; read-out: BRG1 IP50 (μM)*
  IC50: < 0.01 µM
BRM; read-out: BRM IP50 (μM)*
  IC50: < 0.01 µM

## CO[C@H]1CCCN(c2cccc(-c3csc(NC(=O)CNC(=O)c4ccn(S(C)(=O)=O)c4)n3)c2)C1 [Compound 11, (S)—N-(2-((4-(3-(3-methoxypiperidin-1-yl)phenyl)thiazol-2-yl)amino)-2-oxoethyl)-1-(methylsulfonyl)-1H-pyrrole-3-carboxamide]
BRG-1; read-out: BRG1 IP50 (μM)*
  IC50: > 0.01 µM
BRM; read-out: BRM IP50 (μM)*
  IC50: > 0.01 µM

## Cn1c(=O)ccc2ccc(-c3csc(NC(=O)CNC(=O)c4ccn(S(C)(=O)=O)c4)n3)cc21 [Compound 12, N-(2-((4-(1-methyl-2-oxo-1,2-dihydroquinolin-7-yl)thiazol-2-yl)amino)-2-oxoethyl)-1-(methylsulfonyl)-1H-pyrrole-3-carboxamide]
BRG-1; read-out: BRG1 IP50 (μM)*
  IC50: > 0.01 µM
BRM; read-out: BRM IP50 (μM)*
  IC50: > 0.01 µM

## CN(C)C(=O)CN(C)c1cc(-c2cccc(-c3csc(NC(=O)CNC(=O)c4ccn(S(C)(=O)=O)c4)n3)c2)ccn1 [Compound 13, N-(2-((4-(3-(2-((2-(dimethylamino)-2-oxoethyl)(methyl)amino)pyridin-4-yl)phenyl)thiazol-2-yl)amino)-2-oxoethyl)-1-(methylsulfonyl)-1H-pyrrole-3-carboxamide]
BRG-1; read-out: BRG1 IP50 (μM)*
  IC50: > 0.01 µM
BRM; read-out: BRM IP50 (μM)*
  IC50: > 0.01 µM

## CS(=O)(=O)n1ccc(C(=O)NCC(=O)Nc2nc(-c3cccc(-c4ccnc(C5(C(=O)O)CC5)c4)c3)cs2)c1 [Compound 14, 1-(4-(3-(2-(2-(1-(methylsulfonyl)-1H-pyrrole-3-carboxamido)acetamido)thiazol-4-yl)phenyl)pyridin-2-yl)cyclopropanecarboxylic acid]
BRG-1; read-out: BRG1 IP50 (μM)*
  IC50: < 0.01 µM
BRM; read-out: BRM IP50 (μM)*
  IC50: < 0.01 µM

## CN(CC(=O)O)c1cc(-c2cccc(-c3csc(NC(=O)CNC(=O)c4ccn(S(C)(=O)=O)c4)n3)c2)ccn1 [Compound 15, 2-(methyl(4-(3-(2-(2-(1-(methylsulfonyl)-1H-pyrrole-3-carboxamido)acetamido)thiazol-4-yl)phenyl)pyridin-2-yl)amino)acetic acid]
BRG-1; read-out: BRG1 IP50 (μM)*
  IC50: < 0.01 µM
BRM; read-out: BRM IP50 (μM)*
  IC50: < 0.01 µM

## CNC(=O)CN(C)c1cc(-c2cccc(-c3csc(NC(=O)CNC(=O)c4ccn(S(C)(=O)=O)c4)n3)c2)ccn1 [Compound 16, N-(2-((4-(3-(2-(methyl(2-(methylamino)-2-oxoethyl)amino)pyridin-4-yl)phenyl)thiazol-2-yl)amino)-2-oxoethyl)-1-(methylsulfonyl)-1H-pyrrole-3-carboxamide]
BRG-1; read-out: BRG1 IP50 (μM)*
  IC50: < 0.01 µM
BRM; read-out: BRM IP50 (μM)*
  IC50: < 0.01 µM

## Cc1nc(-c2cccc(-c3csc(NC(=O)CNC(=O)c4ccn(S(C)(=O)=O)c4)n3)c2)c[nH]1 [Compound 17]
BRG-1; read-out: BRG1 IP50 (μM)*
  IC50: > 0.01 µM
BRM; read-out: BRM IP50 (μM)*
  IC50: > 0.01 µM

## Cn1cnc(-c2cccc(-c3csc(NC(=O)CNC(=O)c4ccn(S(C)(=O)=O)c4)n3)c2)c1 [Compound 18, N-(2-((4-(3-(1-methyl-1H-imidazol-4-yl)phenyl)thiazol-2-yl)amino)-2-oxoethyl)-1-(methylsulfonyl)-1H-pyrrole-3-carboxamide]
BRG-1; read-out: BRG1 IP50 (μM)*
  IC50: > 0.01 µM
BRM; read-out: BRM IP50 (μM)*
  IC50: > 0.01 µM

## CN1CCN(c2cc(-c3cccc(-c4csc(NC(=O)CNC(=O)c5ccn(S(C)(=O)=O)c5)n4)c3)ccn2)CC1 [Compound 19, N-(2-((4-(3-(2-(4-methylpiperazin-1-yl)pyridin-4-yl)phenyl)thiazol-2-yl)amino)-2-oxoethyl)-1-(methylsulfonyl)-1H-pyrrole-3-carboxamide]
BRG-1; read-out: BRG1 IP50 (μM)*
  IC50: > 0.01 µM
BRM; read-out: BRM IP50 (μM)*
  IC50: > 0.01 µM

## CN(C)CCNc1cc(-c2cccc(-c3csc(NC(=O)CNC(=O)c4ccn(S(C)(=O)=O)c4)n3)c2)ccn1 [Compound 20, N-(2-((4-(3-(2-((2-(dimethylamino)ethyl)amino)pyridin-4-yl)phenyl)thiazol-2-yl)amino)-2-oxoethyl)-1-(methylsulfonyl)-1H-pyrrole-3-carboxamide]
BRG-1; read-out: BRG1 IP50 (μM)*
  IC50: > 0.01 µM
BRM; read-out: BRM IP50 (μM)*
  IC50: > 0.01 µM
